Reference: PMC9081605, “A High-Throughput Toxicity Screen of 42 Per- and Polyfluoroalkyl Substances (PFAS) and Functional Assessment of Migration and Gene Expression in Human Placental Trophoblast Cells” (Frontiers in Toxicology, 2022)

What was measured:
[1] = system: JEG-3 cells; test: Proliferation, change in confluence 0-24 h (IncuCyte Zoom, HTTS); assay type: cell-based, human; conditions: for cellular proliferation relative to vehicle control (rough binning): after 24 h, in at least one concentration; for Prolif ↓, lowest concentration at which the mean response value exceeded the mean control value ± 2*SD (rough binning): decrease
How it was run: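 Confluence measured by automated image masking at 0 h and 24 h after dosing; proliferation = 24 h minus baseline confluence. JEG-3 seeded at 2,500 cells/well, ~30–50% baseline confluence, exposed 24 h to PFAS up to 500 µM in medium with 2.5% methanol vehicle; 37°C, 5% CO2.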

[2] = system: JEG-3 cells; test: Mitochondrial membrane potential, JC-10 assay (HTTS); assay type: cell-based, human; conditions: for MMP ↓, lowest concentration at which the mean response value exceeded the mean control value ± 2*SD (rough binning): 24 h, decrease; for EC50: four-parameter fit, estimates meeting inclusion criteria; for MMP relative to vehicle control (rough binning): after 24 h, in at least one concentration
How it was run: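 JEG-3 cells seeded at 2,500 per well were exposed to PFAS for 24 h at 37 °C, with 2.5% methanol vehicle. After a PBS wash, 20 μM JC-10 was added for 1 h at 37 °C. Membrane potential was taken as the green (490/525 nm) to red (540/590 nm) fluorescence ratio.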

[3] = JEG-3 cells, 24 h exposure, four-parameter fit, estimates meeting inclusion criteria, read-out: Proliferation EC50 ± SD
[4] = JEG-3 cells, 24 h exposure, read-out: MMP EC50 ± SD
[5] = Homo sapiens, JEG-3, 24 h, read-out: Proliferation EC50 ± SD, JEG-3 cells, 24 h exposure, four-parameter fit, estimates meeting inclusion criteria
[6] = Homo sapiens, JEG-3, 24 h, read-out: MMP EC50 ± SD, JEG-3 cells, 24 h exposure

Row | Structure (SMILES) | Prolif ↑, lowest concentration at which the mean response value exceeded the mean control value ± 2*SD (rough binning) ([1]; JEG-3 cells, 24 h, increase) [µM] | cellular proliferation relative to vehicle control (rough binning) [1] | Prolif ↓, lowest concentration at which the mean response value exceeded the mean control value ± 2*SD (rough binning) ([1]; JEG-3 cells, 24 h) [µM] | EC50 [1, 3] [µM] | MMP ↓, lowest concentration at which the mean response value exceeded the mean control value ± 2*SD (rough binning) ([2]; JEG-3 cells) [µM] | EC50 [2, 4] [µM] | MMP relative to vehicle control (rough binning) [2] | EC50 [1, 5] [µM] | EC50 ([1]; Homo sapiens, JEG-3, 24 h, read-out: proliferation EC50 ± SE, JEG-3 cells, 24 h) [µM] | EC50 [2, 6] [µM] | EC50 ([1]; JEG-3 cells, 24 h exposure, four-parameter fit, estimates meeting inclusion criteria, listed as PFOS, read-out: Proliferation EC50 ± SD) [µM] | EC50 ([2]; JEG-3 cells, 24 h exposure, listed as PFOS, read-out: MMP EC50 ± SD) [µM] | minimal effective concentration ([1]; Homo sapiens, JEG-3, 24 h, read-out: Prolif ↓, lowest concentration at which the mean response value exceeded the mean control value ± 2*SD (rough binning)) [µM] | minimal effective concentration ([2]; Homo sapiens, JEG-3, 24 h, read-out: MMP ↓, lowest concentration at which the mean response value exceeded the mean control value ± 2*SD (rough binning)) [µM]
1 | N.O=C(O)C(F)(OC(F)(F)C(F)(F)C(F)(F)F)C(F)(F)F (stereo not shown) [Ammonium perfluoro-2-methyl-3-oxahexanoate] | 50 | increased cellular proliferation |  |  |  |  |  |  |  |  |  |  |  | 
2 | O=C(O)C(F)(F)C(F)(F)C(F)(F)C(F)(F)C(F)(F)C(F)(F)C(F)(F)C(F)(F)F [Perfluorononanoic acid] |  | reduced cellular proliferation | 300 | 326 ± 5.5 | 300 | 305 ± 13.6 | reduced MMP |  |  |  |  |  |  | 
3 | NS(=O)(=O)C(F)(F)C(F)(F)C(F)(F)C(F)(F)C(F)(F)C(F)(F)C(F)(F)C(F)(F)F [Perfluorooctanesulfonamide] |  |  |  |  |  |  |  | 160 ± 87.8 | 160 ± 90 | 227 ± 370 |  |  |  | 
4 | O=S(=O)(O)C(F)(F)C(F)(F)C(F)(F)C(F)(F)C(F)(F)C(F)(F)C(F)(F)C(F)(F)F [Perfluorooctanesulfonic acid] |  | reduced cellular proliferation | 250 | 294 ± 5.8 | 350 | 353 ± 6.7 | reduced MMP |  |  |  | 294 | 353 |  | 
5 | O=C(O)C(F)(F)C(F)(F)C(F)(F)C(F)(F)C(F)(F)C(F)(F)C(F)(F)F [Perfluorooctanoic acid] |  | reduced cellular proliferation |  |  |  |  | reduced MMP | 344 ± 12.2 |  | 360 ± 18 |  |  | 350 | 450
